Laboratory results: ChEMBL document CHEMBL5365420, “Kinetics, Thermodynamics, and Structural Effects of Quinoline-2-Carboxylates, Zinc-Binding Inhibitors of New Delhi Metallo-β-lactamase-1 Re-sensitizing Multidrug-Resistant Bacteria for Carbapenems” (J Med Chem, 2023)

Columns and labels:
Escherichia coli [1] = assay: Antibacterial activity against clinical isolate Escherichia coli K12 J53-ST10 696/17 expressing blaNDM-1 co-expressing blaCMY-4 assessed as meropenem MIC at 72.88 uM measured after 20 hrs by broth microdilution assay (reference value: 24 mg/L); type: functional
Escherichia coli [2] = assay: Antibacterial activity against clinical isolate Escherichia coli ST1012/10 expressing blaNDM-1 co-expressing blaTEM-1/blaCTX-M-15/blaOXA-1 and blaOXA-2 assessed as meropenem MIC at 72.88 uM measured after 20 hrs by broth microdilution assay (reference value: 24 mg/L); type: functional
Escherichia coli [3] = assay: Antibacterial activity against clinical isolate Escherichia coli K12 J53-ST10 618/15 expressing blaNDM-1 assessed as meropenem MIC at 72.88 uM measured after 20 hrs by broth microdilution assay (reference value: 24 mg/L); type: functional
[4] = molecular target: Metallo-beta-lactamase type 2 (Bacteria, UniProt C7C422)
Description: Binding affinity to C-terminal 6His-tagged full length truncated NDM-1 (unknown origin) expressed in Escherichia coli BL21-DE3 assessed as dissociation constant by isothermal titration calorimetric analysis

Klebsiella pneumoniae [5] = assay: Antibacterial activity against clinical isolate Klebsiella pneumoniae ST1493/10 expressing blaNDM-1 co-expressing blaCMY-2like/blaTEM-1/blaCTX-M-15/blaSHV-28/blaOXA-1 and blaOXA-9 assessed as meropenem MIC at 72.88 uM measured after 20 hrs by broth microdilution assay (reference value: 24 mg/L); type: functional
Escherichia coli [6] = assay: Antibacterial activity against clinical isolate Escherichia coli K12 J53-ST10 684/18 expressing blaNDM-1 co-expressing blaCMY-2 and blaOXA-10 assessed as meropenem MIC at 36.44 uM measured after 20 hrs by broth microdilution assay (reference value: 12 mg/L); type: functional
[7] = Selectivity ratio of Ki for human recombinant MMP-2 CD to Ki for C-terminal 6His-tagged full length NDM-1 (unknown origin)
[8] = Inhibition of GIM1 (unknown origin) incubated for 15 mins by absorbance based microplate reader analysis; design: species or system Bacteria
[9] = molecular target: Metallo-beta-lactamase type 2 (Bacteria) (UniProt C7C422)
Description: Binding affinity to C-terminal 6His-tagged full length truncated NDM-1 (unknown origin) expressed in Escherichia coli BL21-DE3 assessed as change in enthalpy by isothermal titration calorimetric analysis

Klebsiella pneumoniae [10] = assay: Antibacterial activity against clinical isolate Klebsiella pneumoniae 50/20 expressing blaNDM-5 co-expressing blaTEM-1 and blaSHV-1 assessed as meropenem MIC at 36.44 uM measured after 20 hrs by broth microdilution assay (reference value: 12 mg/L); type: functional
[11] = molecular target: Metallo-beta-lactamase type 2 (Bacteria) (UniProt C7C422); remark: listed apart in the source
Klebsiella pneumoniae [12] = assay: Antibacterial activity against clinical isolate Klebsiella pneumoniae 50/11 expressing blaNDM-1 co-expressing blaTEM-1/blaSHV-28/blaTEM-1/blaCTX-M-15 and blaOXA-1 assessed as meropenem MIC at 36.44 uM measured after 20 hrs by broth microdilution assay (reference value: 12 mg/L); type: functional
[13] = molecular target: Metallo-beta-lactamase type 2 (Bacteria) (UniProt C7C422); remark: listed apart in the source
Description: Binding affinity to C-terminal 6His-tagged full length truncated NDM-1 (unknown origin) expressed in Escherichia coli BL21-DE3 assessed as change in entropy by isothermal titration calorimetric analysis

Chain of Metallo-beta-lactamase type 2 (Bacteria) (C7C422 whole entry): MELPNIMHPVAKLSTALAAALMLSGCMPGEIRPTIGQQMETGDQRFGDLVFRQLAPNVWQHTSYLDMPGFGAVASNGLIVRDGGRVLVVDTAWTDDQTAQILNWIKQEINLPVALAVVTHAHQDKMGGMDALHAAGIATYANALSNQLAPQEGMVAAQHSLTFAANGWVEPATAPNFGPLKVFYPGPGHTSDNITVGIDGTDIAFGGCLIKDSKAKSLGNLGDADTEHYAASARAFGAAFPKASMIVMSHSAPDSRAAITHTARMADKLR
Chain of Metallo-beta-lactamase type 2 (C7C422 whole entry): as above

Molecule `O=C(O)c1ccc2cccc(NS(=O)(=O)c3ccccn3)c2n1` has an MIC (Escherichia coli [1]) of no more than 0.125 µg/mL, an MIC (Escherichia coli [2]) of no more than 0.125 µg/mL and an MIC (Escherichia coli [3]) of no more than 0.125 µg/mL. For the same molecule, the Kd [4] was 105 nM, the MIC (Klebsiella pneumoniae [5]) was 1 µg/mL and the MIC (Escherichia coli [6]) was no more than 0.125 µg/mL. It also gave a Ratio Ki [7] of 40, an IC50 [8] of 650 nM and a deltaH [9] of -6.6 kcal/mol. For the same molecule, the MIC (Klebsiella pneumoniae [10]) was 0.5 µg/mL, the ΔTm [11] was 15 °C and the MIC (Klebsiella pneumoniae [12]) was no more than 0.125 µg/mL. It also gave a -TdeltaS [13] of -2.92 kcal/mol.
